According to patent US20240100045A1, “EMULSION COMPOSITION AND USES THEREOF IN THE PREVENTION AND/OR TREATMENT OF SKIN DAMAGE CAUSED BY RADIATION” (TARIAN PHARMA, priority 2021, published 2024):
Where two headings read alike, the source gives them in different places. Marks after values point to notes of the source that are not given here.

What was measured:
[1] = system: alpha2-adrenergic receptors; conditions: alpha2 vs alpha1; cited from earlier work
[2] = for saturation in the aqueous solvent phase of the primary formulation: prior to application
Procedure: (§1) […] were prepared by adding an excess of drug substance to various solvents and storing the samples in sealed containers for 24 hours at room temperature with continuous stirring.
(§2) The majority of samples were stirred by a magnetic stirrer; however, in the case of viscous samples (e.g for pure glycerine), samples were stirred using a rotary mixer. The speed of the rotary mixer was adjusted to ensure proper mixing of the sample and this generally involved slower rotation speeds.
(§3) The chromatographic conditions are described below:• Column: Sunfire C18 150 mm×4.6 mm, 3.5 μm • Column temperature: 40° C. • Injection volume: […] • Flow rate: 0.8m1/minute • UV Detection: 246 nm
Saturated solutions were prepared, incubated and measured as described in Example 1.

[3] = Procedure: as §1, §2, §3
[4] = conditions not specified, cited from earlier work

Molecule: Brc1c(NC2=NCCN2)ccc2nccnc12 [Brimonidine]
- selectivity for alpha2-adrenergic receptors over alpha1-adrenergic receptors [1]: 1,000 times

Molecule: brimonidine tartrate
- active agent solubilised by the non-volatile mixture compared to the aqueous mixture ([2]; PG/PEG-400/GLY/PVP (20:10:5:1) vs PG/PEG400/GLY/PVP/water (20:10:5:1:40)): approximately 22%
- saturation in the aqueous solvent phase of the primary formulation ([2]; concentration of 1% brimonidine tartrate): around 30%
- saturation in the aqueous solvent phase of the primary formulation ([2]; concentration of 1.5% brimonidine tartrate): ~50%
- Max Solubility % (w/w) ([2]; in PG/PEG-400 (20:10)): 0.45 % (w/w)
- Max Solubility % (w/w) ([2]; in PG/PEG-400/GLY (20:10:5)): 0.66 % (w/w)
- Max Solubility % (w/w) ([2]; in PG/PEG-400/GLY/(20:10:5:1)): 0.72 % (w/w)
- Max Solubility % (w/w) ([2]; in PG/PEG-400/GLY/PVP/Water (20:10:5:1:40)): 3.3 % (w/w)
- Max Solubility % (w/w) ([2]; in PG/PEG-400/PVP (20:10:1)): 0.45 % (w/w)
- solubility in glycerine relative to propylene glycol ([3]; glycerine vs propylene glycol): twice
- Max Solubility % (w/w) ([3]; in ARLASOLVE DMI, 24 hours at room temperature): 0.01 % (w/w)
- Max Solubility % (w/w) ([3]; in GLUCAM E10, peak degradation observed after reinjection T + 72 hours): 0.72* % (w/w)
- Max Solubility % (w/w) ([3]; in GLUCAM E20, peak degradation observed after reinjection T + 72 hours): 0.88* % (w/w)
- Max Solubility % (w/w) ([3]; in Glycerine (GLY, 20 ml scintillation bottle)): 1.61 % (w/w)
- Max Solubility % (w/w) ([3]; in Hexylene Glycol): 0.01 % (w/w)
- Max Solubility % (w/w) ([3]; in Na Pyrrolidone Carboxylate (Ajidew L50)): 0.06 % (w/w)
- Max Solubility % (w/w) ([3]; in PEG-400): 0.10 % (w/w)
- Max Solubility % (w/w) ([3]; in Propylene Carbonate, peak degradation observed after reinjection T + 24 hours): 0.01** % (w/w)
- Max Solubility % (w/w) ([3]; in Propylene glycol, measured value): 0.56 % (w/w)
- Max Solubility % (w/w) ([3]; in TRANSCUTOL, 24 hours at room temperature): 0.05 % (w/w)
- Max Solubility % (w/w) ([3]; in WATER, measured value): 6.40 % (w/w)
- solubility capacity of PG relative to glycerine ([3]; propylene glycol vs glycerine): 50%
- Max Solubility % (w/w) ([4]; in Propylene glycol, literature value (Product Monograph ALPHAGAN)): ~0.1**** % (w/w)
- Max Solubility % (w/w) ([4]; in WATER, literature value): 3.4*** % (w/w)
